Data set [1] concerns BJ. Description: Cytotoxicity against human BJ cells after 72 hrs by luminescence assay. The format is cell-based.
Data set [2] can be described thus: Selectivity ratio of EC50 for human HepG2 cells to EC50 for Plasmodium falciparum.
Data set [3] concerns HepG2. The data set is described as follows: Cytotoxicity against human HepG2 cells after 72 hrs by luminescence assay. Format: cell-based. Conditions: hepg2, 72 h.
The subject of data set [4] is HEK293. Description: Cytotoxicity against human HEK293 cells after 72 hrs by luminescence assay. The following applies: hek293, 72 h. The format is cell-based.
In data set [5] the test system is Raji. Description: Cytotoxicity against human Raji cells after 72 hrs by luminescence assay. Format: cell-based.

Structures are written as SMILES.

Consider `Cl.O=C(CCc1ccccc1)c1ccccc1OCC(O)CN1CCN(c2ccccc2Cl)CC1` (racemic), for which the Activity result in data set [1], in data set [3], in data set [4] and in data set [5] was “Non-toxic” in each case. Moreover, the selectivity ratio in data set [2] was over 10.

Turning to `Cl.O=C(CCc1ccccc1)c1ccccc1OCC(O)CN1CCN(c2ccc(Cl)cc2)CC1` (racemic), the Activity entry in data set [1], in data set [3], in data set [4] and in data set [5] was “Non-toxic” each time. Besides, the selectivity ratio in data set [2] was over 10.

`Cl.O=C(CCc1ccccc1)c1ccccc1OCC(O)CN1CCN(c2ccc(Cl)c(Cl)c2)CC1` (racemic): the Activity result in data set [1], in data set [3], in data set [4] and in data set [5] was “Non-toxic” each time. In data set [2], the selectivity ratio is over 10.

For `Cl.O=C(CCc1ccccc1)c1ccccc1OCC(O)CN1CCN(c2ccccc2F)CC1` (racemic), the Activity entry in data set [1], in data set [3], in data set [4] and in data set [5] was “Non-toxic” throughout. Also, the selectivity ratio in data set [2] is over 10.

For `Cl.O=C(CCc1ccccc1)c1ccccc1OCC(O)CN1CCN(c2ccc(F)cc2)CC1` (racemic), the Activity entry in data set [1], in data set [3], in data set [4] and in data set [5] was “Non-toxic” in each case. In addition, in data set [2], the selectivity ratio was over 10.

`Cl.O=C(CCc1ccccc1)c1ccccc1OCC(O)CN1CCN(c2ccc([N+](=O)[O-])cc2)CC1` (racemic): the Activity result in data set [1], in data set [3], in data set [4] and in data set [5] was “Non-toxic” in each case. Also, the selectivity ratio in data set [2] was over 10.

Regarding `Cl.Nc1ccc(N2CCN(CC(O)COc3ccccc3C(=O)CCc3ccccc3)CC2)cc1` (racemic), the Activity result in data set [1], in data set [3], in data set [4] and in data set [5] was “Non-toxic” throughout. Besides, in data set [2], the selectivity ratio is over 10.

`Cl.O=C(CCc1ccccc1)c1ccccc1OCC(O)CN1CCN(c2ccc(O)cc2)CC1` (racemic): the Activity entry in data set [1], in data set [3], in data set [4] and in data set [5] was “Non-toxic” each time. Besides, in data set [2], the selectivity ratio is over 10.

For the molecule `Cl.O=C(CCc1ccccc1)c1ccccc1OCC(O)CN1CCN(c2ccc(C(F)(F)F)cc2)CC1` (racemic), the Activity result in data set [1], in data set [3], in data set [4] and in data set [5] was “Non-toxic” in each case. In data set [2], the selectivity ratio was over 10.

With `Cl.O=C(CCc1ccccc1)c1ccccc1OCC(O)CN1CCN(C(=O)c2ccccc2)CC1` (racemic), the Activity entry in data set [1], in data set [3], in data set [4] and in data set [5] was “Non-toxic” throughout. Besides, the selectivity ratio in data set [2] is over 10.

As to `CN1CCN(CC(O)COc2ccccc2C(=O)CCc2ccccc2)CC1.Cl` (racemic), the Activity result in data set [1], in data set [3], in data set [4] and in data set [5] was “Non-toxic” each time. The selectivity ratio in data set [2] was over 10.

On to `CCN1CCN(CC(O)COc2ccccc2C(=O)CCc2ccccc2)CC1.Cl` (racemic), for which the Activity result in data set [1], in data set [3], in data set [4] and in data set [5] was “Non-toxic” in each case. In data set [2], the selectivity ratio is over 10.

`Cl.O=C(CCc1ccccc1)c1ccccc1OCC(O)CN1CCOCC1` (racemic): the Activity result in data set [1], in data set [3], in data set [4] and in data set [5] was “Non-toxic” in each case. Besides, the selectivity ratio in data set [2] is over 10.

For `Cc1cccc([N+]2(c3ccccc3)CCN(CC(O)COc3ccccc3C(=O)CCc3ccc(F)cc3)CC2)c1.[Cl-]` (racemic), the Activity result in data set [1], in data set [3], in data set [4] and in data set [5] was “Non-toxic” in each case. In addition, in data set [2], the selectivity ratio is over 10.

On to `Cl.O=C(CCc1ccc(F)cc1)c1ccccc1OCC(O)CN1CCCCC1` (racemic), for which the Activity entry in data set [1], in data set [3], in data set [4] and in data set [5] was “Non-toxic” throughout. Also, the selectivity ratio in data set [2] is over 10.

Consider `Cl.O=C(CCc1ccc(F)cc1)c1ccccc1OCC(O)CN1CCC(c2ccccc2)CC1` (racemic), for which the Activity result in data set [1], in data set [3], in data set [4] and in data set [5] was “Non-toxic” throughout. The selectivity ratio in data set [2] was over 10.

As to `Cl.O=C(CCc1ccc(F)cc1)c1ccccc1OCC(O)CN1CCC(Cc2ccccc2)CC1` (racemic), the Activity entry in data set [1], in data set [3], in data set [4] and in data set [5] was “Non-toxic” each time. Also, in data set [2], the selectivity ratio was over 10.

Take `Cl.O=C(CCc1ccc(F)cc1)c1ccccc1OCC(O)CN1CCC(c2ccc(Cl)cc2)CC1` (racemic): the Activity result in data set [1], in data set [3], in data set [4] and in data set [5] was “Non-toxic” in each case. For the same molecule, the selectivity ratio in data set [2] was over 10.

Consider `Cl.O=C(CCc1ccc(F)cc1)c1ccccc1OCC(O)CN1CCC(O)(Cc2ccccc2)CC1` (racemic), for which the Activity result in data set [1], in data set [3], in data set [4] and in data set [5] was “Non-toxic” throughout. Further, the selectivity ratio in data set [2] is over 10.

As to `Cl.O=C(CCc1ccc(F)cc1)c1ccccc1OCC(O)CN1CCC(O)(c2ccc(Cl)cc2)CC1` (racemic), the Activity entry in data set [1], in data set [3], in data set [4] and in data set [5] was “Non-toxic” each time. Besides, the selectivity ratio in data set [2] was over 10.

Turning to `Cl.O=C(CCc1ccc(F)cc1)c1ccccc1OCC(O)CN1CCN(c2ccccc2)CC1` (racemic), the Activity result in data set [1], in data set [3], in data set [4] and in data set [5] was “Non-toxic” each time. Moreover, the selectivity ratio in data set [2] was over 10.

Turning to `Cl.O=C(CCc1ccc(F)cc1)c1ccccc1OCC(O)CN1CCN(Cc2ccccc2)CC1` (racemic), the Activity entry in data set [1], in data set [3], in data set [4] and in data set [5] was “Non-toxic” throughout. In addition, the selectivity ratio in data set [2] is over 10.

(Values after ChEMBL document CHEMBL1914304 (J Med Chem, 2011).)
